Assays:
primary keratinocytes = assay: % change in live cells vs DMSO control; higher = less cytotoxic; conditions: time (h post treatment): 20
Experimental: (§1)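 Cytotoxicity in uninfected 2D primary donor keratinocytes (20 h post treatment) and fibroblasts (48 h post treatment), measured with NucSpot live/dead dyes on IncuCyte. Live cells are normalised to the 0.2% DMSO control and shown as % change. Three biological replicates for each of donors 3, 4 and 5.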

[1] = system: primary dermal fibroblasts; assay: as above; conditions: time (h post treatment): 48
Experimental: as §1

[2] = system: HSV-1 K26-GFP infected 3D skin equivalent; assay: % activity on HSV-1 GFP signal (0 = infected DMSO control, -100 = uninfected control); higher = higher signal (negative = inhibition / toxicity); conditions: time (h post infection): 48
Experimental: (§2)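 Triplicate dose-response (0.04 to 10 uM) of 11 top compounds in 3D bioprinted skin equivalents (submerged and ALI models) infected with GFP-HSV-1 K26 at MOI 0.1 and fixed at 48 hpi. GFP (virus) and tdTomato (fibroblast viability) signals are normalised to per-plate controls.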

[3] = system: HSV-1 K26-GFP infected primary human skin cells; assay: % change of HSV-1 GFP signal vs untreated infected cells; higher = less antiviral inhibition
Experimental: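 2D primary donor-derived keratinocytes (read at 20 hpi) and donor-matched dermal fibroblasts (read at 48 hpi) infected with GFP-HSV-1 K26 at MOI 1 and treated 1 h later with compound dilutions. IncuCyte GFP integrated intensity is normalised by subtracting mock-infected wells and dividing by untreated infected wells, shown as % change (-100 = full inhibition).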

[4] = system: HSV-1 K26-GFP infected 3D skin equivalent; assay: % change of tdTomato fibroblast signal relative to infected DMSO control; higher = higher signal (negative = inhibition / toxicity); conditions: time (h post infection): 48
Experimental: as §2

Cc1cccc(C)c1N(CC(=O)Nc1ccc(-c2ncon2)cc1)C(=O)C1CCS(=O)(=O)CC1 [Amenamevir]
Conditions	% activity on HSV-1 GFP signal, [2] [%]	% change in live cells, [1] [%]	% change in live cells, primary keratinocytes [%]	% change of tdTomato fibroblast signal, [4] [%]
0.041152 µM, model: ALI	-20.3	–	–	0.354
0.041152 µM, model: submerged	2.22	–	–	12
0.082305 µM, donor: 3	–	-6.67	-5	–
0.082305 µM, donor: 4	–	5	8.33	–
0.082305 µM, donor: 5	–	2.33	-7.67	–
0.123457 µM, model: ALI	-40.4	–	–	-2.14
0.123457 µM, model: submerged	-17.6	–	–	-5.09
0.246914 µM, donor: 3	–	-7	-8.33	–
0.246914 µM, donor: 4	–	4.67	-12.7	–
0.246914 µM, donor: 5	–	4.33	-7	–
0.37037 µM, model: ALI	-99.3	–	–	-5.49
0.37037 µM, model: submerged	-61.9	–	–	-8.61
0.740741 µM, donor: 3	–	-7.33	-12	–
0.740741 µM, donor: 4	–	2.67	-6	–
0.740741 µM, donor: 5	–	3	-5.67	–
1.111111 µM, model: ALI	-108	–	–	-6.26
1.111111 µM, model: submerged	-84.6	–	–	-5
2.22222 µM, donor: 3	–	-6	-3.33	–
2.22222 µM, donor: 4	–	5	-3.33	–
2.22222 µM, donor: 5	–	0	-5.33	–
3.33333 µM, model: ALI	-107	–	–	-5.93
3.33333 µM, model: submerged	-89.2	–	–	2.99
6.66667 µM, donor: 3	–	-6	1.67	–
6.66667 µM, donor: 4	–	6.67	-36.7	–
6.66667 µM, donor: 5	–	-3	-1.67	–
10 µM, model: ALI	-112	–	–	-8.92
10 µM, model: submerged	-85.3	–	–	5.91
20 µM, donor: 3	–	-6.33	-32.7	–
20 µM, donor: 4	–	4.67	-42	–
20 µM, donor: 5	–	-4.67	5.67	–
60 µM, donor: 3	–	-6.33	-70.3	–
60 µM, donor: 4	–	0	-63.3	–
60 µM, donor: 5	–	-23.3	-5	–

% change of HSV-1 GFP signal [%], [3]
Conditions	0.001 µM	0.003 µM	0.0091 µM	0.0274 µM	0.0823 µM	0.2469 µM	0.7407 µM	2.2222 µM	6.6667 µM	20 µM
cell type: primary dermal fibroblasts, donor: 5, time (h post infection): 48	-4.89	-8.89	-13.3	-23.6	-42.3	-59.7	-74.9	-91.3	-98.98	-99.775
cell type: primary keratinocytes, donor: 3, time (h post infection): 20	13.9	12.5	4.38	0.743	-11.4	-38.9	-51.9	-68	-78.6	-83.4
cell type: primary keratinocytes, donor: 4, time (h post infection): 20	-3.16	-0.75	-11.8	-15.3	-42.6	-80.2	-87.1	-93.7	-95.2	-99.17
cell type: primary keratinocytes, donor: 5, time (h post infection): 20	1.08	2.94	-1.03	-12.8	-31.3	-49.2	-67.5	-93.4	-97.9	-99.54

COc1ccc(-c2nc(N3CCOCC3)c3sc(CN(C)c4ncc(C(=O)NO)cn4)cc3n2)cn1 [Fimepinostat]
Conditions	% activity on HSV-1 GFP signal, [2] [%]	% change in live cells, [1] [%]	% change in live cells, primary keratinocytes [%]	% change of tdTomato fibroblast signal, [4] [%]
0.041152 µM, model: ALI	-85.1	–	–	-7.82
0.041152 µM, model: submerged	2.37	–	–	12.3
0.082305 µM, donor: 3	–	-29.3	-23.3	–
0.082305 µM, donor: 4	–	-13	-5.33	–
0.082305 µM, donor: 5	–	6.67	-8	–
0.123457 µM, model: ALI	-97.4	–	–	-14
0.123457 µM, model: submerged	6.63	–	–	9.59
0.246914 µM, donor: 3	–	-34.3	-39.7	–
0.246914 µM, donor: 4	–	-33.3	-20.7	–
0.246914 µM, donor: 5	–	-8.67	-13.7	–
0.37037 µM, model: ALI	-79.6	–	–	-3.36
0.37037 µM, model: submerged	-1.58	–	–	12.7
0.740741 µM, donor: 3	–	-41.3	-38.7	–
0.740741 µM, donor: 4	–	-44	-34.3	–
0.740741 µM, donor: 5	–	-23.3	-38	–
1.111111 µM, model: ALI	-64.2	–	–	-5.66
1.111111 µM, model: submerged	-31.5	–	–	8.55
2.22222 µM, donor: 3	–	-56	-41.3	–
2.22222 µM, donor: 4	–	-67.3	-59	–
2.22222 µM, donor: 5	–	-56.3	-58.7	–
3.33333 µM, model: ALI	-78.3	–	–	-20.2
3.33333 µM, model: submerged	-75.6	–	–	-1.39
6.66667 µM, donor: 3	–	-61	-42.3	–
6.66667 µM, donor: 4	–	-60.3	-79.3	–
6.66667 µM, donor: 5	–	-60	-67	–
10 µM, model: ALI	-88.6	–	–	-11
10 µM, model: submerged	-87.4	–	–	-3.36
20 µM, donor: 3	–	-64.7	-76	–
20 µM, donor: 4	–	-56.3	-99.7	–
20 µM, donor: 5	–	-68	-80.7	–
60 µM, donor: 3	–	-75	-95.3	–
60 µM, donor: 4	–	-60.3	-94.33	–
60 µM, donor: 5	–	-79.3	-95.33	–

% change of HSV-1 GFP signal [%], [3]
Conditions	0.003 µM	0.0091 µM	0.0274 µM	0.0823 µM	0.2469 µM	0.7407 µM	2.2222 µM	6.6667 µM	20 µM	60 µM
cell type: primary dermal fibroblasts, donor: 5, time (h post infection): 48	-12.8	-13.7	-14.2	-12.3	-12	-18.4	-25.6	-32.6	-34.1	-28.4
cell type: primary keratinocytes, donor: 3, time (h post infection): 20	6.27	-3.11	2.91	1.02	-16.3	-33.2	-41.3	-43	-64.7	-48.6
cell type: primary keratinocytes, donor: 4, time (h post infection): 20	-14.2	-25.2	-17.4	-25	-33	-64.8	-69.2	-76.4	-89.2	-72.7
cell type: primary keratinocytes, donor: 5, time (h post infection): 20	-6.73	-26.4	-15.1	-24.8	-44.7	-48	-58.2	-64.6	-70.5	-57.8

— the supplement of paper PMC12533247
